# Test results published in PMC6091370, “Preclinical Evaluation of [^18F]LCATD as a PET Tracer to Study Drug-Drug Interactions Caused by Inhibition of Hepatic Transporters” (Contrast Media & Molecular Imaging, 2018).
# Values joined by “and” are separate entries in the source; they are usually repeats but may differ in a detail not shown here. Equal entries are not always repeated.
# What was measured:
# [1] = Postmortem metabolites analysis by radio-HPLC; type: in vivo, rat; details: 50 min postinjection
# Method: Analysis of metabolites in the blood, liver, and bile (extracted from the intestine) was performed via radio-HPLC. Blood samples, collected by cardiac puncture at the end of the PET-CT scan, were treated with an equal volume of acetonitrile, centrifuged for 1 minute at 1000 rpm and the supernatant was injected in radio-HPLC (Shimadzu Prominence HPLC system equipped with a PDA UV detector and HERM LB500 activity detector and Phenomenex Luna C18 column, 5 μm, 100 Å, 250 × 4.6 mm, injection volume 20 µL, PBS/CH3CN 60 : 40, isocratic elution, flow: 1 mL·min^−1). Samples of the liver and duodenum were collected at the end of the PET-CT scan (after euthanasia) homogenated with methanol (80% in water, 5 mL per gram of biological sample) by means of a homogenizer and centrifuged for 1 minute at 1000 rpm and the supernatant was injected in radio-HPLC.
# BSEP [2] = system: BSEP; set-up: method as in PMID 28011201; details: in vitro; cited from earlier work
# [3] = Postmortem biodistribution of the tracer (gamma counting, 50 min postinjection); type: in vivo, rat; details: for activity in the terminal blood sample versus control: p < 0.05
# Method: Samples of the liver, heart, and kidney were collected at the end of the PET-CT scan (after euthanasia) and homogenised with methanol (80% in water, 5 mL per gram of biological sample) by means of a homogenizer. Samples were stored in preweighed plastic vials. Terminal blood was collected by cardiac puncture just before euthanasia. The activity of the homogenates and blood samples was measured by means of a precalibrated gamma counter as soon as possible after the PET experiment.
# [4] = Dynamic PET/CT imaging of hepatic uptake and biliary excretion of [18F]LCATD in rats; type: in vivo, rat; details: for CLuptake,in vivo (in vivo hepatic uptake clearance): Patlak integration plot 0–3 min; for CLuptake,in vivo (in vivo hepatic uptake clearance) / t max (time to maximum peak concentration in liver) / AUCbile 0–10 min (radioactivity in the gastrointestinal tract) / AUCliver 0–5 min / AUCliver 0–30 min / CLint,bile (intrinsic biliary clearance of the radiotracer) / Kp liver 0−5 min (apparent liver-to-blood AUC0–5 min ratio) / Cmax,liver (maximum measured activity in the liver): n=3
# Method: PET scans were performed with a preclinical PET/CT SEDECAL ARGUS scanner (SEDECAL, Spain) housed in a temperature-controlled suite. The scanner has two 11.8 cm diameter rings of photoswitch detectors coupled to position-sensitive photomultiplier tubes, giving a 4.8 cm axial and 7.5 cm transaxial field of view (FOV). All animals were cannulated (Venisystem Butterfly, Abbott Ireland) in the tail vein for tracer injection under general anaesthesia with isoflurane (IsoFlo 100% w/w, Abbott Laboratories Ltd) 2.5% (2 L·min^−1 oxygen flow). Animals were divided into three groups: control group (administered with [ ^18 F]LCATD only, 3 animals), rifamycin SV-treated group (3 animals) and fusidate-treated group (3 animals). All the animals were scanned in supine position. At the start of the scan, [ ^18 F]LCATD (5–15 MBq per body) was injected as a single bolus into the tail vein. Administered radioactivity was measured as the net counts in the syringe before and after the injection with an ionization chamber (Capintec CRC-15PET; Ramsey, New Jersey). The mass amount of [ ^18 F]LCATD administered per animal was estimated to be between 0.2 and 1 nmol. For inhibition experiments, rifamycin SV was administrated 45 minutes before the start of the scan at a dose of 50mg·Kg^−1 (intraperitoneally) and at the time of the tracer injection at a dose of 12.5 mg·Kg^−1 (intravenously). For the in vivo assessment of the inhibitory effect of sodium fusidate on the hepatobiliary transport of the tracer, the drug was administrated at a dose of 20 mg·Kg^−1 (intraperitoneally) 30 minutes before the scan and at a dose of 10 mg·Kg^−1 (intravenously) after 15 minutes from the tracer injection. Emission scans in 3D list-mode were acquired for 30 minutes (with a FOV encompassing part of the thorax and the intestine) followed by a 5 minutes CT scan. PET acquisitions were obtained with an energy window set to 250–700 keV and corrections for dead-time, activity decay, attenuation, random, and scatter counts were applied (using the manufacturer' software). The dynamic images were obtained by sorting the list mode data into the following time frames: 6 × 10 s, 8 × 30 s, 10 × 60 s, and 3 × 300 s, and images were reconstructed with a FORE/2D-OSEM reconstruction algorithm (provided by the manufacturer). Sampling at shorter intervals during early time-points enabled us to detect rapid increments of tracer uptake in the liver and intestine. […] A 5-minute PET scan of the injection site at the end of the CT was obtained to ensure successful intravenous injection. Cross calibration between the ionization chamber and the PET scanner was carried out by using a cylindrical phantom made of Perspex with internal diameter of 43 mm and length of 37 mm. 10 to 20 minute PET scans of the phantom filled with an average of about 4.20 MBq of [ ^18 F]LCATD in 60 g of water were acquired (average dead-time value 4%).
# The registered PET and CT images were transferred from the scanner to a processing workstation, and subsequent analysis was carried out using Pmod (Pmod Technologies, CH) version 3.2. Regions of interest (ROIs) corresponding to abdominal aorta, liver, and gastrointestinal tract were defined via a combination of manual and threshold methods (Supplementary Figure 1 and movie) using PMOD software (PMOD Technologies). The stomach was included in the gastrointestinal ROI to include the amount of bile that might have refluxed from the duodenum into the stomach.
# Uptake hepatic clearance CLuptake,in vivo was calculated by integration plots obtained applying the Patlak method in Pmod (Pmod Technologies, CH) version 3.2, limiting the linear fit to the uptake phase (0–3 min).
# Intrinsic biliary clearance of the radiotracer CLint,bile was determined as proposed by Takashima et al. by quantification of the radiotracer in the liver and the intestine (as amount of radiotracer excreted into the bile).
# NTCP [5] = system: NTCP; set-up: method as in PMID 28011201; details: in vitro; cited from earlier work
# [6] = set-up: method as in PMID 28011201; details: in vitro; cited from earlier work
# OATP1B1 [7] = system: OATP1B1; set-up: method as in PMID 28011201; details: in vitro; cited from earlier work
# OATP1B3 = system: OATP1B3; set-up: method as in PMID 28011201; details: in vitro; cited from earlier work
# MRP2 transporter = system: MRP2 transporter; set-up: method as in PMID 27676153; details: 0.3–300 µM, increased efflux of LTC4, MRP2 transfected membrane vesicles; cited from earlier work
# OATP1B1 [8] = details: cited from earlier work
# NTCP [9] = details: cited from earlier work
# BSEP [10] = details: read-out: IC50 for BSEP; cited from earlier work
# [11] = rifamycin SV-treated rats (total dose 62.5 mg·Kg^−1)
structure (smiles),measurement,setting,value
"C[C@H](CCC(=O)NC(Cc1cn(CCCC[18F])nn1)C(=O)O)[C@H]1CC[C@H]2[C@@H]3CC[C@@H]4C[C@H](O)CC[C@]4(C)[C@H]3CC[C@]12C (some centres unmarked) [[ ^18 F]LCATD, LithoCholic Acid Triazole Derivative]",metabolic stability of the tracer,"[1]; in vivo, rat",at least 90%
same,share of activity in intestine extracts as twin peak matching [18F]LCATD,"[1]; radio-HPLC, intestine extracts of two control animals",over 90%
same,transport by efflux transporter BSEP,BSEP [2],excreted into the bile via the efflux transporter BSEP
same,activity in the terminal blood sample versus control,[3]; fusidate-treated rats,significantly increased
same,activity in the kidneys,[3]; postmortem,< 0.1 % of the injected dose
same,activity in the terminal blood sample versus control,[3]; rifamycin SV-treated rats,significantly increased
same,activity in the liver 2 minutes after tracer injection,[4]; control rats,14.2 ± 0.8%
same,maximum activity recorded in the liver,[4]; control rats,14.2 ± 0.8 % of the injected dose
same,residual activity in the liver after 30 minutes,[4]; control rats,1.04 ± 0.17 % of the injected dose
same,"CLuptake,in vivo (in vivo hepatic uptake clearance)","[4]; control rats, image-derived blood input",2.09 ± 0.27 mL/min/g
same,t max (time to maximum peak concentration in liver),"[4]; control rats, [18F]LCATD only, iv bolus",135 s
same,AUCbile 0–10 min (radioactivity in the gastrointestinal tract),[4]; control rats,89 ± 1 % ID·min·mL^−1
same,AUCliver 0–5 min,[4]; control rats,58 ± 1 % ID·min·mL^−1
same,AUCliver 0–30 min,[4]; control rats,110 ± 15 % ID·min·mL^−1
same,"CLint,bile (intrinsic biliary clearance of the radiotracer)",[4]; control rats,0.17 ± 0.03 mL/min/g
same,Kp liver 0−5 min (apparent liver-to-blood AUC0–5 min ratio),[4]; control rats,3.64 ± 0.09
same,activity in the liver after 30 minutes,[4]; fusidate-treated rats,1.02 ± 0.02 % of the injected dose
same,t max (time to maximum peak concentration in liver),[4]; fusidate-treated rats (20 mg·Kg^−1 ip 30 min before scan + 10 mg·Kg^−1 iv 15 min after tracer injection),135 s
same,maximum activity recorded in the liver,[4]; fusidate-treated rats (30 mg·Kg^−1),11.5 ± 0.3 % of the injected dose
same,"CLuptake,in vivo (in vivo hepatic uptake clearance)",[4]; fusidate-treated rats,1.40 ± 0.13^∗ mL·min^−1·g^−1
same,AUCbile 0–10 min (radioactivity in the gastrointestinal tract),[4]; fusidate-treated rats,93 ± 19 % ID·min·mL^−1
same,AUCliver 0–5 min,[4]; fusidate-treated rats,48 ± 0.3^∗ % ID·min·mL^−1
same,AUCliver 0–30 min,[4]; fusidate-treated rats,89 ± 11 % ID·min·mL^−1
same,"CLint,bile (intrinsic biliary clearance of the radiotracer)",[4]; fusidate-treated rats,0.36 ± 0.03^∗ mL·min^−1·g^−1
same,"Cmax,liver (maximum measured activity in the liver)",[4]; fusidate-treated rats,11.5 ± 0.3^∗ % ID·mL^−1
same,Kp liver 0−5 min (apparent liver-to-blood AUC0–5 min ratio),[4]; fusidate-treated rats,2.451 ± 0.016
same,activity in the liver 2 minutes after tracer injection,[4]; rifamycin SV-treated rats,8.0 ± 0.6%
same,activity in the liver after 30 minutes,[4]; rifamycin SV-treated rats,1.87 ± 0.13 % of the injected dose
same,t max (time to maximum peak concentration in liver),[4]; rifamycin SV-treated rats (50 mg·Kg^−1 ip 45 min before scan + 12.5 mg·Kg^−1 iv at tracer injection),225 s
same,delay of t max relative to control rats,[4]; [11],90 s
same,maximum activity recorded in the liver,[4]; [11],10.2 ± 0.9 % of the injected dose and 10.2 ± 1.0 % of the injected dose
same,"CLuptake,in vivo (in vivo hepatic uptake clearance)",[4]; rifamycin SV-treated rats,0.71 ± 0.05^∗ mL·min^−1·g^−1
same,AUCbile 0–10 min (radioactivity in the gastrointestinal tract),[4]; rifamycin SV-treated rats,53 ± 3^∗ % ID·min·mL^−1
same,AUCliver 0–5 min,[4]; rifamycin SV-treated rats,44 ± 4^∗ % ID·min·mL^−1
same,AUCliver 0–30 min,[4]; rifamycin SV-treated rats,139 ± 9 % ID·min·mL^−1
same,"CLint,bile (intrinsic biliary clearance of the radiotracer)",[4]; rifamycin SV-treated rats,0.12 ± 0.03 mL/min/g
same,"Cmax,liver (maximum measured activity in the liver)",[4]; rifamycin SV-treated rats,10.2 ± 0.9^∗ % ID·mL^−1
same,Kp liver 0−5 min (apparent liver-to-blood AUC0–5 min ratio),[4]; rifamycin SV-treated rats,2.07 ± 0.17
same,activity in the liver 2 minutes after tracer injection,[4]; sodium fusidate-treated rats,11.4 ± 0.4%
same,transport by uptake transporter NTCP,NTCP [5],substrate
same,passive permeability,[6],low
same,transport by uptake transporter OATP1B1,OATP1B1 [7],substrate
same,transport by OATP1B3,OATP1B3,low affinity substrate
CC(=O)O[C@H]1C[C@@]2(C)[C@@H](C[C@@H](O)[C@H]3[C@@]4(C)CC[C@@H](O)[C@@H](C)[C@@H]4CC[C@@]32C)/C1=C(\CCC=C(C)C)C(=O)O [fusidic acid],effect on MRP2 transporter (canalicular efflux) in vitro,MRP2 transporter,stimulate
CO[C@H]1/C=C/O[C@@]2(C)Oc3c(C)c(O)c4c(O)c(cc(O)c4c3C2=O)NC(=O)/C(C)=C\C=C\[C@H](C)[C@H](O)[C@@H](C)[C@@H](O)[C@@H](C)[C@H](OC(C)=O)[C@@H]1C [rifamycin SV],IC50,OATP1B1 [8],200 to 400 nM
same,Ki,NTCP [9]; read-out: K i for NTCP,> 63 µM
same,IC50,BSEP [10],6.3 µM
CC(=O)O[C@H]1C[C@@]2(C)[C@@H](C[C@@H](O)[C@H]3[C@@]4(C)CC[C@@H](O)[C@@H](C)[C@@H]4CC[C@@]32C)/C1=C(\CCC=C(C)C)C(=O)O [sodium fusidate],IC50,OATP1B1 [8],1600 to 35000 nM
same,IC50,NTCP [9],44 µM
same,IC50,BSEP [10],3.8 to 11.5 µM
